Test results reported in ChEMBL document CHEMBL4483862, “Open-source discovery of chemical leads for next-generation chemoprotective antimalarials” (2018).

Test system: Plasmodium berghei
Test: Luciferase/luciferin-expressing antifolate-resistant parasites were used to infect a culture of HepG2 cells that were pre-incubated with compounds. Infected hepatocytes emit light due to the luciferase reaction. Assay results are presented as the percent inhibition of light emission compared to control. […]
Type: functional
Details: sporozoite; for IC90: read-out: LUCIFERASE INFECTION ASSAY - IC90

Structure (SMILES) | IC90 [µM] | further results
CC[n+]1c(/C=C/c2ccc(SC)cc2)ccc2ccccc21 | > 7.62 | IC50 (PBLUC_HILL_SLOPE 11.6, PBLUC_R_SQUARED 0.0577, read-out: LUCIFERASE INFECTION ASSAY - IC50): > 7.62 µM
CN(C)CCNc1nc(Oc2cccc3ccccc23)c2sccc2n1 | > 9.05 | IC50 (PBLUC_HILL_SLOPE 11.6, PBLUC_R_SQUARED 0.0493, read-out: LUCIFERASE INFECTION ASSAY - IC50): 8.94 µM
CC(C)(C)c1ccc(-c2n[nH]c(NC(=O)c3ccccc3Cl)c2Br)cc1 | > 7.63 | IC50 (PBLUC_HILL_SLOPE 11.9, PBLUC_R_SQUARED 0.175, read-out: LUCIFERASE INFECTION ASSAY - IC50): 7.07 µM
CCOc1cccc(-c2cn3c(-c4cccc(CO)c4)cnc3cn2)c1 | > 9.55 | IC50 (PBLUC_HILL_SLOPE 11.7, PBLUC_R_SQUARED 0.129, read-out: LUCIFERASE INFECTION ASSAY - IC50): 8.63 µM
CCn1c(NC(=O)c2oc3ccccc3c2COC)nc2ccccc21 | 4.5 | IC50 (PBLUC_HILL_SLOPE 11.7, PBLUC_R_SQUARED 0.368, read-out: LUCIFERASE INFECTION ASSAY - IC50): 3.72 µM
CCC(C)NCCCCOc1cc(C(C)C)ccc1C (stereo not given) | > 10 | IC50 (PBLUC_HILL_SLOPE 11.7, PBLUC_R_SQUARED 0.0741, read-out: LUCIFERASE INFECTION ASSAY - IC50): > 10 µM
O=C(Nn1cnc2ccccc21)c1ccccc1Nc1ccc(SC(F)F)cc1 | > 10 | IC50 (PBLUC_HILL_SLOPE 11.6, PBLUC_R_SQUARED 0.0782, read-out: LUCIFERASE INFECTION ASSAY - IC50): 8.68 µM
Cn1nc(C(C)(C)C)cc1C(=O)Nc1ccc2nc(-c3cccnc3)nn2c1 | > 10 | IC50 (PBLUC_HILL_SLOPE 11.9, PBLUC_R_SQUARED 0.235, read-out: LUCIFERASE INFECTION ASSAY - IC50): > 10 µM
COc1ccccc1C(=O)NCc1cn(Cc2ccccc2)nc1-c1ccccc1 | > 10 | IC50 (PBLUC_HILL_SLOPE 11.8, PBLUC_R_SQUARED 0.553, read-out: LUCIFERASE INFECTION ASSAY - IC50): 9.21 µM
CCOc1ccc(NS(=O)(=O)c2ccc(NC(=O)c3ccc(OC)c(S(=O)(=O)N4CCCCC4C)c3)cc2)cc1 (stereo not given) | > 10 | IC50 (PBLUC_HILL_SLOPE 11.8, PBLUC_R_SQUARED 0.201, read-out: LUCIFERASE INFECTION ASSAY - IC50): 9.44 µM
CC(C)C(=O)Nc1c(-c2ccc(Cl)c(Cl)c2)c(=O)c2ccccc2n1C | 3.11 | IC50 (PBLUC_HILL_SLOPE 11.7, PBLUC_R_SQUARED 0.375, read-out: LUCIFERASE INFECTION ASSAY - IC50): 2.58 µM
CC(C)Cc1nc2oc3c(NCCN(C)C)ncnc3c2c2c1COC(C)(C)C2 | > 8.3 | IC50 (PBLUC_HILL_SLOPE 11.6, PBLUC_R_SQUARED 0.0696, read-out: LUCIFERASE INFECTION ASSAY - IC50): 7.66 µM
Nc1ccc(-c2cn3c(-c4ccc(O)cc4)cnc3cn2)cn1 | > 10.9 | IC50 (PBLUC_HILL_SLOPE 11.6, PBLUC_R_SQUARED 0.257, read-out: LUCIFERASE INFECTION ASSAY - IC50): 10.2 µM
O=[N+]([O-])c1cnc(Sc2nnc(SCC3CC3)s2)s1 | > 9.93 | IC50 (PBLUC_HILL_SLOPE 11.6, PBLUC_R_SQUARED 0.0358, read-out: LUCIFERASE INFECTION ASSAY - IC50): 9.69 µM
O=C(/C=C/c1csc(-c2ccc(Cl)cc2)n1)c1cccc(O)c1 | 4.93 | IC50 (PBLUC_HILL_SLOPE 11.6, PBLUC_R_SQUARED 0.644, read-out: LUCIFERASE INFECTION ASSAY - IC50): 4.08 µM
CC(=O)c1c(C)[nH]c(C(=O)CSc2c(C)c(C)cc(C)c2C)c1C | > 10 | IC50 (PBLUC_HILL_SLOPE 11.6, PBLUC_R_SQUARED 0.344, read-out: LUCIFERASE INFECTION ASSAY - IC50): > 10 µM
c1cncc(-c2nc(Oc3ccc(-c4nnc5n4CCCCC5)cc3)c3ccccc3n2)c1 | > 10 | IC50 (PBLUC_HILL_SLOPE 11.7, PBLUC_R_SQUARED 0.282, read-out: LUCIFERASE INFECTION ASSAY - IC50): > 10 µM
CC(C)c1ccc(-c2cnc3sc(NC4CCC(O)CC4)nn23)cc1 (stereo not given) | > 9.26 | IC50 (PBLUC_HILL_SLOPE 11.9, PBLUC_R_SQUARED 0.449, read-out: LUCIFERASE INFECTION ASSAY - IC50): 8.25 µM
Cn1c(SCC(=O)c2ccc(Cl)cc2)nnc1-c1ccc(C(C)(C)C)cc1 | > 8.25 | IC50 (PBLUC_HILL_SLOPE 11.7, PBLUC_R_SQUARED 0.0355, read-out: LUCIFERASE INFECTION ASSAY - IC50): > 8.25 µM
O=C(Nc1cccc(F)c1)Nc1ccc2nc(-c3ccoc3)nn2c1 | > 10 | IC50 (PBLUC_HILL_SLOPE 11.8, PBLUC_R_SQUARED 0.647, read-out: LUCIFERASE INFECTION ASSAY - IC50): 8.63 µM

Structure (SMILES) | IC90 [µM] | further results
Cc1c(C(=O)c2ccccc2)oc2ccc(NC(=O)c3ccco3)cc12 | > 9.56 | IC50 (PBLUC_HILL_SLOPE 11.9, PBLUC_R_SQUARED 0.0568, read-out: LUCIFERASE INFECTION ASSAY - IC50): > 9.56 µM
Cc1cc(C2=NN/C(=N/C3CC3)SC2)c(C)n1-c1cccc(S(=O)(=O)N2CCOCC2)c1 | > 10 | IC50 (PBLUC_HILL_SLOPE 11.7, PBLUC_R_SQUARED 0.69, read-out: LUCIFERASE INFECTION ASSAY - IC50): 9.28 µM
Cc1cccc(C)c1NC(=O)Nc1nc(C(N)Cc2ccc(C(F)(F)F)cc2)cs1 (stereo not given) | > 7.6 | IC50 (PBLUC_HILL_SLOPE 11.8, PBLUC_R_SQUARED 0.0609, read-out: LUCIFERASE INFECTION ASSAY - IC50): 6.88 µM
O=C(Nc1cc(C(F)(F)F)ccc1N1CCOCC1)c1ccc(SCc2cscn2)cc1 | > 10 | IC50 (PBLUC_HILL_SLOPE 11.6, PBLUC_R_SQUARED 0.493, read-out: LUCIFERASE INFECTION ASSAY - IC50): 8.97 µM
CC(C)(C)c1ccc(C(=O)Nc2cccc(F)c2C#N)cc1 | > 11.1 | IC50 (PBLUC_HILL_SLOPE 11.7, PBLUC_R_SQUARED 0.257, read-out: LUCIFERASE INFECTION ASSAY - IC50): 9.4 µM
COCCNC(=O)c1nn(CCC(C)C)c2c1CN(C(=O)c1cc(C)n[nH]1)CC2 | 3.47 | IC50 (PBLUC_HILL_SLOPE 11.6, PBLUC_R_SQUARED 0.412, read-out: LUCIFERASE INFECTION ASSAY - IC50): 2.87 µM
Cc1cc(NC(=O)/C=C/c2cn(-c3ccccc3)nc2-c2cccnc2)ccc1N1CCN(C)CC1 | 4.23 | IC50 (PBLUC_HILL_SLOPE 11.7, PBLUC_R_SQUARED 0.29, read-out: LUCIFERASE INFECTION ASSAY - IC50): 3.5 µM
Cc1cc(C)c(NC(=O)CNC(=O)c2ccc(-c3ccccc3)cc2)c(C)c1 | > 10 | IC50 (PBLUC_HILL_SLOPE 11.6, PBLUC_R_SQUARED 0.0183, read-out: LUCIFERASE INFECTION ASSAY - IC50): > 10 µM
NC(Cc1ccc(Cl)cc1)c1csc(NC(=O)Nc2ccccc2Cc2ccccc2)n1 (stereo not given) | > 7.13 | IC50 (PBLUC_HILL_SLOPE 11.7, PBLUC_R_SQUARED 0.713, read-out: LUCIFERASE INFECTION ASSAY - IC50): 6.46 µM
Cc1c(Cl)cc(NC(=O)Nc2ccccc2)c(O)c1Cl | > 10.6 | IC50 (PBLUC_HILL_SLOPE 11.8, PBLUC_R_SQUARED 0.519, read-out: LUCIFERASE INFECTION ASSAY - IC50): 9.83 µM
CSc1ccc(-c2cn3c(-c4ccc(C(=O)NC5CC5)cc4)cnc3cn2)cc1 | > 8.24 | IC50 (PBLUC_HILL_SLOPE 11.7, PBLUC_R_SQUARED 0.658, read-out: LUCIFERASE INFECTION ASSAY - IC50): 7.27 µM
CC(Sc1nc2ccsc2c(=O)n1C)c1ccc(F)cc1 (stereo not given) | > 10 | IC50 (PBLUC_HILL_SLOPE 11.9, PBLUC_R_SQUARED 0.0437, read-out: LUCIFERASE INFECTION ASSAY - IC50): > 10 µM
Clc1ccc(N/N=C/Cc2nnnn2-c2ccccc2)cc1 | > 10.6 | IC50 (PBLUC_HILL_SLOPE 11.7, PBLUC_R_SQUARED 0.117, read-out: LUCIFERASE INFECTION ASSAY - IC50): 10.1 µM
COc1cc(-c2cc3nc(Nc4ccc5c[nH]nc5c4)ccn3n2)cc(OC)c1OC | > 7.92 | IC50 (PBLUC_HILL_SLOPE 11.7, PBLUC_R_SQUARED 0.319, read-out: LUCIFERASE INFECTION ASSAY - IC50): 7.27 µM
O=C(Cc1csc(COc2ccc(Cl)cc2)n1)Nc1ccccc1O | > 10 | IC50 (PBLUC_HILL_SLOPE 11.8, PBLUC_R_SQUARED 0.113, read-out: LUCIFERASE INFECTION ASSAY - IC50): 9.28 µM
Cc1cc(Cl)ccc1OCCCC(=O)NCCn1c(C)nc2ccccc21 | > 10 | IC50 (PBLUC_HILL_SLOPE 11.5, PBLUC_R_SQUARED 0.538, read-out: LUCIFERASE INFECTION ASSAY - IC50): 9.27 µM
Cc1cccc(-c2cn3c(-c4ccc(CO)cc4)cnc3cn2)c1C | > 10 | IC50 (PBLUC_HILL_SLOPE 11.7, PBLUC_R_SQUARED 0.283, read-out: LUCIFERASE INFECTION ASSAY - IC50): 8.31 µM
Cc1ccc(NC(=O)C2(C)CCN2Cc2ccccc2Cl)cc1O (stereo not given) | > 9.57 | IC50 (PBLUC_HILL_SLOPE 11.9, PBLUC_R_SQUARED 0.388, read-out: LUCIFERASE INFECTION ASSAY - IC50): 8.78 µM
COc1cc(-c2cc(-c3ccc(F)c(Cl)c3)cnc2N)ccc1O | > 9.57 | IC50 (PBLUC_HILL_SLOPE 11.9, PBLUC_R_SQUARED 0.433, read-out: LUCIFERASE INFECTION ASSAY - IC50): 8.61 µM
CCN(CC)S(=O)(=O)c1ccc(OC(C)C)c(NC(=O)C2=CN3CCS(=O)(=O)N=C3C=C2)c1 | 4.52 | IC50 (PBLUC_HILL_SLOPE 11.8, PBLUC_R_SQUARED 0.349, read-out: LUCIFERASE INFECTION ASSAY - IC50): 3.75 µM
